One assay addresses T1, Native human MIF (Homo sapiens, UniProt P14174).
T1 sequence (P14174 2-115 limits assumed): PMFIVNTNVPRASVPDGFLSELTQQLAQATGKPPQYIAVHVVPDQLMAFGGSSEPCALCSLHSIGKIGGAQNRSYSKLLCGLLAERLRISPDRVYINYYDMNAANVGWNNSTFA
Put plainly: MIF tautomerase activity assay with hydroxyphenyl pyruvic acid (HPP) substrate. The conditions noted are these: absorbance at 300 nm. The format is biochemical. How it is done: The ability of candidate compounds to inhibit this tautomerase activity are quantitated by using hydroxyphenyl pyruvic acid (HPP) as a substrate (Ouertatani-Sakouhi et al., 2010). The ability of compounds to inhibit the tautomerase activity can be quantitated by following the increase in absorbance due to the enzymatic formation of the HPP enol-borate complex at 300 nm in the absence and presence of a test compound. The IC50 value of compounds are determined by plotting the initial velocities determined at 300 nm as a function of a test compound's concentration. Assays are carried out in a 96 or 384 well plate format. Representative MIF inhibitors were tested in the assay described above and the results tabulated in Table 1 wherein “A” represents≦10 μM; “B” represents>10 μM and <100 μM; “C” represents>100 μM and ≦200 μM; and “D” represents>200 μM.

A further assay deals with LPS-stimulated PBMCs. Kind of assay: TNF-α production in LPS-stimulated PBMCs. Type of assay: cell-based. The conditions noted are these: PBMC; human PBMCs, 25 μM compound preincubated 1 hour, LPS stimulation, 24 hours. As to the method:
(§1) Effect of Candidate Compounds on Cytokine Production from Human Cells: Mono-Mac-6 Cells: The cellular efficacy of the inhibitors is determined using the human monocytic cell line, Mono-Mac-6 cells (MM6 cells) as it has been shown that MIF induces the production of inflammatory mediators, including tumor necrosis factor-α (TNF-α) interleukin (IL)-1β, IL-6, IL-8, interferon-γ (IFN-γ) and prostaglandin E2 (PGE2) in these cells (Schwartz et al., 2009). Recombinant human MIF (rhMIF) will be purchased from R&D Systems (Minneapolis, Minn.) or generated in house. To induce the production of inflammatory mediators, MM6 cells will be plated at a final concentration of 5×10^5 cells/ml in RPMI 1640 medium containing 1% heat-inactivated low-pyrogen fetal bovine serum, 2 mM GlutaMAX-1,1% non-essential amino acids, 1% sodium pyruvate, 100 units/ml penicillin G and 100 μg/ml streptomycin (Gibco BRL Life Technologies). Cells will be stimulated with 100 ng/ml rhMIF with or without inhibitor for 20 h at 37° C. with 5% CO2. The supernatants were stored at −20° C. until they were assayed. The levels of inflammatory mediators will be determined using commercial ELISA kits from R&D Systems (Minneapolis, Minn.). Human Periperal Blood Mononuclear Cells (PBMC): Human whole blood is collected from healthy donors in sodium-heparinized tubes (BD Biosciences), and peripheral blood mononucleated cells (PBMC) are isolated by Ficoll separation. Cells are washed in Dulbecco's phosphate-buffered saline, resuspended in media (DMEM) containing 5% low endotoxin (<0.3 EU/ml) fetal Bovine Serum (FBS, GIBCO) and 10 units/ml penicillin/streptomycin, and plated at 5×10^5 cells/well in 96-well tissue culture plates. Lipopolysaccharide (LPS, E. coli Serotype 0111:B4, Sigma) or macrophage migration inhibitory factor are pre-incubated for 15 minutes with compounds dissolved in dimethyl sulfoxide (DMSO). The mixtures are then added to cells to yield final concentrations of 1% DMSO, 100 ng/ml LPS and 1 μg/ml MIF. Cells are incubated for overnight at 37° C., 5% CO2. TNF-α production is measured by ELISA (R&D Systems). Cytotoxicity is assessed using the MTT [3-(4,5-dimethylthiazol-2-yl)-2,5-diphenyl tetrazolium bromide assay. Human Rheumatoid Arthritis Synovial Fibroblast (RASF) Cell Line: RASF cells are derived from the inflamed synovium of a RA patient who was undergoing total knee replacement. Cells are cultured in Dulbecco's modified Eagle's medium with 15% FBS, 1% glutamine, and 1% penicillin/streptamycin (all from Gibco (Invitrogen), Gaithersburg, Md.). Experiments are performed with cells between passages 7 to 10, using trypsin with 0.25% ethylene diamine tetraacetic acid (EDTA)(Gibco) to detach cells. Interleukin 1 or macrophage migration inhibitory factor (MIF, GIBCO) are pre-incubated for 15 minutes with compounds dissolved in dimethyl sulfoxide (DMSO). The mixtures are then added to cells to yield final concentrations of 1% DMSO, 1 ng/ml Interleukin 1 or 1 μg/ml MIF. RASFs are incubated with or without stimuli at 37° C. for 20 h for induction of Interelukin 6. Interleukin 6 levels in culture supernatants are quantitated by ELISA. Representative MIF inhibitors were tested in the assay described above, specifically, human peripheral blood mononuclear cells [PBMCs] were isolated and stimulated with either LPS or rhMIF.

The subject of assay [1] is rhMIF-stimulated PBMCs. Kind of assay: TNF-α production in rhMIF-stimulated PBMCs. Type of assay: cell-based. The conditions noted are these: PBMC; human PBMCs, 25 μM compound preincubated 1 hour, rhMIF stimulation, 24 hours. How it is done: as §1, with “Interleukin 1 or macrophage migration inhibitory factor (MIF, GIBCO) are pre-incubated for 15 minutes with compounds dissolved in dimethyl sulfoxide (DMSO). The mixtures are then added to cells to yield final concentrations of 1% DMSO, 1 ng/ml Interleukin 1 or 1 μg/ml MIF. RASFs are incubated with or without stimuli at 37° C. for 20 h for induction of Interelukin 6.” left out, “Representative MIF inhibitors were tested in the assay described above, specifically, human peripheral blood mononuclear cells [PBMCs] were isolated and stimulated with either LPS or rhMIF.” left out

Assay [2] has as its system rhMIF-stimulated PBMCs. Put plainly: IL-6 production in rhMIF-stimulated PBMCs. The format is cell-based. The conditions noted are these: PBMC; human PBMCs, 25 μM compound preincubated 1 hour, rhMIF stimulation, 24 hours. How it is done: Effect of Candidate Compounds on Cytokine Production from Human Cells: Mono-Mac-6 Cells: The cellular efficacy of the inhibitors is determined using the human monocytic cell line, Mono-Mac-6 cells (MM6 cells) as it has been shown that MIF induces the production of inflammatory mediators, including tumor necrosis factor-α (TNF-α) interleukin (IL)-1β, IL-6, IL-8, interferon-γ (IFN-γ) and prostaglandin E2 (PGE2) in these cells (Schwartz et al., 2009). Recombinant human MIF (rhMIF) will be purchased from R&D Systems (Minneapolis, Minn.) or generated in house. To induce the production of inflammatory mediators, MM6 cells will be plated at a final concentration of 5×10^5 cells/ml in RPMI 1640 medium containing 1% heat-inactivated low-pyrogen fetal bovine serum, 2 mM GlutaMAX-1,1% non-essential amino acids, 1% sodium pyruvate, 100 units/ml penicillin G and 100 μg/ml streptomycin (Gibco BRL Life Technologies). Cells will be stimulated with 100 ng/ml rhMIF with or without inhibitor for 20 h at 37° C. with 5% CO2. The supernatants were stored at −20° C. until they were assayed. The levels of inflammatory mediators will be determined using commercial ELISA kits from R&D Systems (Minneapolis, Minn.). […] Cytotoxicity is assessed using the MTT [3-(4,5-dimethylthiazol-2-yl)-2,5-diphenyl tetrazolium bromide assay. […] Interleukin 6 levels in culture supernatants are quantitated by ELISA. […]

Where only a bound is given, the exact number is not on record here.

The IC50 is the concentration that inhibits the measured activity by half. Lower therefore signals greater potency in that assay. One may read the inhibition as the share of the control response that was lost under treatment. Read a low inhibition as little suppression. Regarding `Cn1c(=O)c(C#N)c(N2CCC(C(=O)c3cccs3)CC2)c2ccccc21` [Compound IV, 1-methyl-2-oxo-4-[4-(thiophen-2-ylcarbonyl)piperidin-1-yl]-1,2-dihydroquinoline-3-carbonitrile], on Native human MIF, the IC50 lay in the range of 100 to 200 µM. This compound had an inhibition at 25 µM with LPS-stimulated PBMCs of 10 to 50%.

Turning to `Cn1c(=O)c(C#N)c(N2CCC(NC(=O)c3cccs3)CC2)c2ccccc21` [Compound VIII, N-[1-(3-cyano-1-methyl-2-oxo-1,2-dihydroquinolin-4-yl)piperidin-4-yl]thiophene-2-carboxamide], the IC50 on Native human MIF was no more than 10 µM. In addition, the inhibition at 25 µM with LPS-stimulated PBMCs was in the range of 10 to 50%. On Native human MIF, `Cn1c(=O)c(C#N)c(N2CC(C(=O)c3cccs3)C2)c2ccccc21` [Compound V] yielded an IC50 of 10 to 100 µM. Also, the inhibition at 25 µM in the assay with LPS-stimulated PBMCs was greater than 70%.

As to `Cn1c(=O)c(C#N)c(N2CCC(C(=O)O)CC2)c2ccccc21` [Compound X, 1-(3-cyano-1-methyl-2-oxo-1,2-dihydroquinolin-4-yl)piperidine-4-carboxylic acid], the IC50 on Native human MIF is greater than 200 µM. `Cn1c(=O)c(C#N)c(N2CCC(C(=O)NCc3ccncc3)CC2)c2ccccc21` [Compound XI, 1-(3-cyano-1-methyl-2-oxo-1,2-dihydroquinolin-4-yl)N-(pyridin-4-ylmethyl)piperidine-4-carboxamide] returned an IC50 against Native human MIF greater than 200 µM.

Take `Cn1c(=O)c(C#N)c(N2CC(C(=O)NCc3ccncc3)C2)c2ccccc21` [Compound XIX, 1-(3-cyano-1-methyl-2-oxo-1,2-dihydroquinolin-4-yl)-N-(pyridin-4-ylmethyl)azetidine-3-carboxamide]: the IC50 against Native human MIF was no more than 10 µM. Take `Cn1c(=O)c(C#N)c(N2CCC(C(=O)Nc3ccn[nH]3)CC2)c2ccccc21` [Compound XV]: the half-inhibitory concentration (IC50) against Native human MIF was no more than 10 µM. Take `Cn1c(=O)c(C#N)c(N2CC(NC(=O)c3cccs3)C2)c2ccccc21` [Compound XXI, N-[1-(3-cyano-1-methyl-2-oxo-1,2-dihydroquinolin-4-yl)azetidin-3-yl]thiophene-2-carboxamide]: the inhibition at 25 µM with rhMIF-stimulated PBMCs [1] was 10 to 50%; in the assay with rhMIF-stimulated PBMCs [2], 10 to 50%; with LPS-stimulated PBMCs it was no more than 10%. The IC50 against Native human MIF lay in the range of 10 to 100 µM.

In the case of `Cn1c(=O)c(C#N)c(NC2CN(S(C)(=O)=O)C2)c2ccccc21` [Compound XXVI, 1-methyl-4-(1-(methylsulfonyl)azetidin-3-ylamino)-2-oxo-1,2-dihydroquinoline-3-carbonitrile], the IC50 at Native human MIF lay within 10 to 100 µM. `N#Cc1c(N2CCC(C(=O)c3cccs3)CC2)c2ccccc2n(Cc2ccc(F)cc2)c1=O` [Compound XXVIII, 1-(4-fluorobenzyl)-2-oxo-4-[4-(thiophen-2-ylcarbonyl)piperidin-1-yl]-1,2-dihydroquinoline-3-carbonitrile] had an IC50 against Native human MIF of 100 to 200 µM. Besides, the inhibition at 25 µM in the assay on LPS-stimulated PBMCs fell in the range of 10 to 50%. With `Cn1c(=O)c(C#N)c(NC2CCN(S(C)(=O)=O)CC2)c2ccccc21` [Compound XXV], the half-maximal inhibitory concentration (IC50) against Native human MIF was greater than 200 µM. On to `Cn1c(=O)c(C#N)c(N2CCC(C(=O)NCCO)CC2)c2ccccc21` [XIII], for which the IC50 against Native human MIF was greater than 200 µM.

For `CN(C)C(=O)C1CCN(c2c(C#N)c(=O)n(C)c3ccccc23)CC1` [XII], the half-maximal inhibitory concentration (IC50) at Native human MIF was greater than 200 µM. The same measure, in the same setting: then `Cn1c(=O)c(C#N)c(N2CCC(C(=O)Nc3nccs3)CC2)c2ccccc21` [XIV], with no more than 10 µM. Consider `Cn1c(=O)c(C#N)c(NC2CCN(C(=O)c3cccs3)CC2)c2ccccc21` [XVII-1, 1-methyl-2-oxo-4-{[1-(thiophen-2-ylcarbonyl)piperidin-4-yl]amino}-1,2-dihydroquinoline-3-carbonitrile], for which, at Native human MIF, the IC50 is no more than 10 µM. In the assay on LPS-stimulated PBMCs, this compound showed an inhibition at 25 µM of 50 to 70%. On Native human MIF, `N#Cc1c(NC2CCN(C(=O)c3cccs3)CC2)c2ccccc2n(Cc2ccc(F)cc2)c1=O` [XXXIII] yielded an IC50 of no more than 10 µM. In addition, in the assay on LPS-stimulated PBMCs, the inhibition at 25 µM lay within 50 to 70%. As for `N#Cc1c(NC2CN(S(=O)(=O)c3cccs3)C2)c2ccccc2n(Cc2ccc(F)cc2)c1=O` [XXXIV, 1-(4-fluorobenzyl)-2-oxo-4-(1-(thiophen-2-ylsulfonyl)azetidin-3-ylamino)-1,2-dihydroquinoline-3-carbonitrile], on Native human MIF, the IC50 is greater than 200 µM. With `N#Cc1c(N2CC(C(=O)c3cccs3)C2)c2ccccc2n(Cc2ccc(F)cc2)c1=O` [XXXVIII], the IC50 against Native human MIF was in the range of 100 to 200 µM. With `N#Cc1c(NC2CN(C(=O)c3cncnc3)C2)c2ccccc2n(Cc2ccc(F)cc2)c1=O` [XXXVII], at Native human MIF, the IC50 fell in the range of 10 to 100 µM. In the assay on rhMIF-stimulated PBMCs [1], `N#Cc1c(NC2CN(C(=O)c3cccs3)C2)c2ccccc2n(Cc2ccc(F)cc2)c1=O` [XXXVI] registered an inhibition at 25 µM greater than 70%. At Native human MIF, this compound registered a concentration for half-maximal inhibition (IC50) of no more than 10 µM. Compound `N#Cc1c(NC2CN(C(=O)c3ccncc3)C2)c2ccccc2n(Cc2ccc(F)cc2)c1=O` [XXXV] yielded an inhibition at 25 µM in the assay with rhMIF-stimulated PBMCs [1] of 10 to 50%. For the same compound, the IC50 against Native human MIF is no more than 10 µM.

Values taken from patent US9050334B2, “MIF inhibitors and their uses” (INNOV88 LLC, priority 2010, dated 2015).
